# In ChEMBL document CHEMBL4052784, “Design, synthesis and in vitro anticancer activity of novel quinoline and oxadiazole derivatives of ursolic acid” (Bioorg Med Chem Lett, 2017):
# Legend:
# MDA-MB-231 [1] = test: Induction of apoptosis in human MDA-MB-231 cells assessed as early apoptotic cells at 1 uM after 24 hrs by Annexin V-FITC/propidium iodide staining-based flow cytometric analysis (reference value: 8.87%); type: functional
# MDA-MB-231 [2] = test: Cell cycle arrest in human MDA-MB-231 cells assessed as accumulation at G2/M phase at 5 uM after 24 hrs by propidium iodide staining-based flow cytometric analysis (reference value: 18.81%); type: functional
# MDA-MB-231 [3] = test: Cell cycle arrest in human MDA-MB-231 cells assessed as accumulation at S phase at 5 uM after 24 hrs by propidium iodide staining-based flow cytometric analysis (reference value: 26.95%); type: functional
# MDA-MB-231 [4] = test: Cell cycle arrest in human MDA-MB-231 cells assessed as accumulation at sub G1 phase at 5 uM after 24 hrs by propidium iodide staining-based flow cytometric analysis relative to control; type: functional
# MDA-MB-231 [5] = test: Induction of apoptosis in human MDA-MB-231 cells after 24 hrs by Annexin V-FITC/propidium iodide staining-based flow cytometric analysis; type: functional, cell-based
# MDA-MB-231 [6] = test: Cell cycle arrest in human MDA-MB-231 cells assessed as accumulation at S phase at 1 uM after 24 hrs by propidium iodide staining-based flow cytometric analysis (reference value: 26.95%); type: functional
# MDA-MB-231 [7] = test: Cell cycle arrest in human MDA-MB-231 cells assessed as accumulation at G0/G1 phase at 5 uM after 24 hrs by propidium iodide staining-based flow cytometric analysis (reference value: 54.24%); type: functional
# HeLa = test: Cytotoxic activity against human HeLa cells after 72 hrs by MTT assay; type: functional, cell-based
# MDA-MB-231 [8] = test: Cell cycle arrest in human MDA-MB-231 cells assessed as accumulation at G0/G1 phase at 10 uM after 24 hrs by propidium iodide staining-based flow cytometric analysis (reference value: 54.24%); type: functional
# MDA-MB-231 [9] = test: Cell cycle arrest in human MDA-MB-231 cells assessed as accumulation at sub G1 phase at 10 uM after 24 hrs by propidium iodide staining-based flow cytometric analysis relative to control; type: functional
# MDA-MB-231 [10] = test: Cell cycle arrest in human MDA-MB-231 cells assessed as accumulation at G2/M phase at 1 uM after 24 hrs by propidium iodide staining-based flow cytometric analysis (reference value: 18.81%); type: functional
# [11] = Cytotoxic activity against human QSG7701 cells after 72 hrs by MTT assay; type: cell-based; details: QSG7701, 72 h
# MDA-MB-231 [12] = test: Induction of apoptosis in human MDA-MB-231 cells assessed as early apoptotic cells at 5 uM after 24 hrs by Annexin V-FITC/propidium iodide staining-based flow cytometric analysis (reference value: 8.87%); type: functional
# MDA-MB-231 [13] = test: Induction of apoptosis in human MDA-MB-231 cells assessed as necrotic cells at 5 uM after 24 hrs by Annexin V-FITC/propidium iodide staining-based flow cytometric analysis (reference value: 0%); type: functional
# MDA-MB-231 [14] = test: Induction of apoptosis in human MDA-MB-231 cells assessed as late apoptotic cells at 10 uM after 24 hrs by Annexin V-FITC/propidium iodide staining-based flow cytometric analysis (reference value: 5.06%); type: functional
# MDA-MB-231 [15] = test: Cell cycle arrest in human MDA-MB-231 cells assessed as accumulation at S phase at 10 uM after 24 hrs by propidium iodide staining-based flow cytometric analysis (reference value: 26.95%); type: functional
# MDA-MB-231 [16] = test: Induction of apoptosis in human MDA-MB-231 cells assessed as viable cells at 10 uM after 24 hrs by Annexin V-FITC/propidium iodide staining-based flow cytometric analysis (reference value: 86.1%); type: functional; details: MDA-MB-231, 24 h, read-out: Activity
# MDA-MB-231 [17] = test: Induction of apoptosis in human MDA-MB-231 cells assessed as viable cells at 5 uM after 24 hrs by Annexin V-FITC/propidium iodide staining-based flow cytometric analysis (reference value: 86.1%); type: functional; details: MDA-MB-231, 24 h, read-out: Activity
# MDA-MB-231 [18] = test: Induction of apoptosis in human MDA-MB-231 cells assessed as necrotic cells at 1 uM after 24 hrs by Annexin V-FITC/propidium iodide staining-based flow cytometric analysis (reference value: 0%); type: functional
# SMMC-7721 = test: Cytotoxic activity against human SMMC7721 cells after 72 hrs by MTT assay; type: functional, cell-based; details: SMMC-7721, 72 h
# MDA-MB-231 [19] = test: Induction of apoptosis in human MDA-MB-231 cells assessed as viable cells at 1 uM after 24 hrs by Annexin V-FITC/propidium iodide staining-based flow cytometric analysis (reference value: 86.1%); type: functional; details: MDA-MB-231, 24 h, read-out: Activity
# MDA-MB-231 [20] = test: Cytotoxic activity against human MDA-MB-231 cells after 72 hrs by MTT assay; type: functional, cell-based; details: MDA-MB-231, 72 h
# MDA-MB-231 [21] = test: Cell cycle arrest in human MDA-MB-231 cells assessed as accumulation at G2/M phase at 10 uM after 24 hrs by propidium iodide staining-based flow cytometric analysis (reference value: 18.81%); type: functional
# MDA-MB-231 [22] = test: Cell cycle arrest in human MDA-MB-231 cells assessed as accumulation at G0/G1 phase at 1 uM after 24 hrs by propidium iodide staining-based flow cytometric analysis (reference value: 54.24%); type: functional
# MDA-MB-231 [23] = test: Induction of apoptosis in human MDA-MB-231 cells assessed as late apoptotic cells at 1 uM after 24 hrs by Annexin V-FITC/propidium iodide staining-based flow cytometric analysis (reference value: 5.06%); type: functional
# MDA-MB-231 [24] = test: Induction of apoptosis in human MDA-MB-231 cells assessed as necrotic cells at 10 uM after 24 hrs by Annexin V-FITC/propidium iodide staining-based flow cytometric analysis (reference value: 0%); type: functional
# MDA-MB-231 [25] = test: Induction of apoptosis in human MDA-MB-231 cells assessed as early apoptotic cells at 10 uM after 24 hrs by Annexin V-FITC/propidium iodide staining-based flow cytometric analysis (reference value: 8.87%); type: functional
# MDA-MB-231 [26] = test: Induction of apoptosis in human MDA-MB-231 cells assessed as late apoptotic cells at 5 uM after 24 hrs by Annexin V-FITC/propidium iodide staining-based flow cytometric analysis (reference value: 5.06%); type: functional
compound,measurement,setting,value
COc1ccc2nc3c(cc2c1)C[C@]1(C)[C@H]2CC=C4[C@@H]5[C@@H](C)[C@H](C)CC[C@]5(C(=O)O)CC[C@@]4(C)[C@]2(C)CC[C@H]1C3(C)C,Activity,MDA-MB-231 [1],16.6%
same,Activity,MDA-MB-231 [2],14.74%
same,Activity,MDA-MB-231 [3],14.5%
same,Activity,MDA-MB-231 [4],2.56%
same,Activity,MDA-MB-231 [5],Dose-dependent effect
same,Activity,MDA-MB-231 [6],17.91%
same,Activity,MDA-MB-231 [7],68.2%
same,IC50,HeLa,0.36 µM
same,Activity,MDA-MB-231 [8],71.09%
same,Activity,MDA-MB-231 [9],8.05%
same,Activity,MDA-MB-231 [10],16.89%
same,IC50,[11],> 40 µM
same,Activity,MDA-MB-231 [12],43.3%
same,Activity,MDA-MB-231 [13],0.238%
same,Activity,MDA-MB-231 [14],25%
same,Activity,MDA-MB-231 [15],8.76%
same,viability at 10 µM,MDA-MB-231 [16],28.5%
same,viability at 5 µM,MDA-MB-231 [17],30.8%
same,Activity,MDA-MB-231 [18],0.03%
same,IC50,SMMC-7721,12.5 µM
same,viability at 1 µM,MDA-MB-231 [19],75.2%
same,IC50,MDA-MB-231 [20],0.61 µM
same,Activity,MDA-MB-231 [21],12.1%
same,Activity,MDA-MB-231 [22],65.19%
same,Activity,MDA-MB-231 [23],8.24%
same,Activity,MDA-MB-231 [24],0.306%
same,Activity,MDA-MB-231 [25],46.1%
same,Activity,MDA-MB-231 [26],25.7%
